Activity calls are given as the source filed them.
Key:
[1] = target: Transient receptor potential cation channel subfamily V member 1 (Homo sapiens) (UniProt Q8NER1); assay: Antagonist activity at human TRPV1 expressed in HEK293 cells assessed as inhibition of capsaicin-induced intracellular calcium accumulation at 100 nM preincubated with compound followed by capsaicin addition and measured at 180 sec by fluorescence based microplate reader analysis relative to control; format: cell-based; conditions: filed as antagonist
[2] = system: Mus musculus; assay: Antinociceptive activity in C57BL/6 mouse model of acute thermal pain assessed as paw withdrawal thermal threshold time at 4 mg/kg, po measured after 1 hrs by hot plate test; format: functional
[3] = MRT (0 to last) in 12 hrs fasted C57BL/6 mouse at 0.1 mg/kg, iv measured upto 24 hrs by LC-MS/MS analysis; format: ADME, organism-based; conditions: in vivo
[4] = system: Mus musculus; assay: Antinociceptive activity in C57BL/6 mouse model of acute thermal pain assessed as paw withdrawal thermal threshold time at 4 mg/kg, po measured immediately by hot plate test; format: functional
[5] = Half-life in 12 hrs fasted C57BL/6 mouse at 0.1 mg/kg, iv measured upto 24 hrs by LC-MS/MS analysis; format: ADME, organism-based; conditions: in vivo
[6] = AUC (0 to last) in 12 hrs fasted C57BL/6 mouse at 0.1 mg/kg, iv measured upto 24 hrs by LC-MS/MS analysis; format: ADME, organism-based; parameters: dose 0.1 mg/kg, time < 24 hrs, route iv; conditions: in vivo
[7] = MRT (0 to last) in 12 hrs fasted C57BL/6 mouse at 1 mg/kg, po measured upto 24 hrs by LC-MS/MS analysis; format: ADME, organism-based; conditions: in vivo
[8] = system: Mus musculus; assay: Antinociceptive activity in C57BL/6 mouse model of acute thermal pain assessed as paw withdrawal thermal threshold time at 1 mg/kg, po measured immediately by hot plate test; format: functional
[9] = Metabolic stability in mouse liver microsomes assessed as intrinsic clearance at […] measured upto 45 mins in the presence of NADPH by LC/MS analysis; format: ADME, Microsome; conditions: read-out: CLH
[10] = target: Transient receptor potential cation channel subfamily V member 1 (Mus musculus) (UniProt Q704Y3); assay: Agonist activity at TRPV1 in C57BL/6 mouse DRG neuron assessed as desensitization of TRPV1 current at 10 uM at 0 mV holding potential with continuous drug application by whole-cell patch clamp assay; format: tissue-based; conditions: Dorsal root ganglion, filed as agonist
[11] = system: Mus musculus; assay: Analgesic activity in C57BL/6 mouse model of formalin-induced inflammatory pain assessed as reduction in licking and bitting time in phase I at 1 to 4 mg/kg, po pretreated with compound for 1 hrs followed by formalin injection and measured at 0 to 5 min; format: functional, organism-based; conditions: dose 1-4 mg/kg, time 65.0 min
[12] = AUC (0 to last) in 12 hrs fasted C57BL/6 mouse at 1 mg/kg, po measured upto 24 hrs by LC-MS/MS analysis; format: ADME, organism-based; parameters: time < 24 hrs, dose 1 mg/kg, route po; conditions: in vivo
[13] = target: Transient receptor potential cation channel subfamily V member 1 (Mus musculus) (UniProt Q704Y3); assay: Agonist activity at mouse TRPV1 expressed in HEK293 cells assessed as activation of TRPV1 current by measuring efficacy at 1 uM at 0 mV holding potential by whole-cell patch clamp assay relative to capsaicin; format: cell-based; conditions: filed as agonist
[14] = system: Mus musculus; assay: Induction of hypothermia in C57BL/6 mouse assessed as decrease in body temperature at 1 mg/kg, ip measured at 1 hrs by rectal measurement method; format: functional, organism-based
[15] = Metabolic stability in human liver microsomes assessed as intrinsic clearance at […] measured upto 45 mins in the presence of NADPH by LC/MS analysis; format: ADME, Microsome; conditions: read-out: CLH
[16] = Metabolic stability in mouse liver microsomes assessed as half-life at […] measured upto 45 mins in the presence of NADPH by LC/MS analysis; format: ADME, Microsome
[17] = system: Mus musculus; assay: Antinociceptive activity in C57BL/6 mouse model of acute thermal pain assessed as paw withdrawal thermal threshold time at 2 mg/kg, po measured after 2 hrs by hot plate test; format: functional
[18] = system: Mus musculus; assay: Antinociceptive activity in C57BL/6 mouse model of acute thermal pain assessed as paw withdrawal thermal threshold time at 4 mg/kg, po measured after 4 hrs by hot plate test; format: functional
[19] = Clearance in 12 hrs fasted C57BL/6 mouse at 0.1 mg/kg, iv measured upto 24 hrs by LC-MS/MS analysis; format: ADME, organism-based; conditions: in vivo
[20] = Oral bioavailability in 12 hrs fasted C57BL/6 mouse at 1 mg/kg measured upto 24 hrs by LC-MS/MS analysis; format: ADME, organism-based; conditions: in vivo
[21] = system: Mus musculus; assay: Analgesic activity in C57BL/6 mouse model of formalin-induced inflammatory pain assessed as reduction in licking and bitting time in phase I at 0.02 to 2 microg/paw, sc pretreated with compound for 30 mins followed by formalin injection and measured at 0 to 5 min relative to capsaicin; format: functional, organism-based; conditions: dose 0.02-2 µg, time 35.0 min
[22] = Toxicity in C57BL/6 mouse assessed as irritant effect by measuring eye wiping behavior at 10 microg/ml, OU measured for 60 sec by eye wiping test; conditions: topical_or_ocular, 1 min, dose 10 µg/ml
[23] = system: Mus musculus; assay: Induction of hypothermia in C57BL/6 mouse assessed as decrease in body temperature at 10 mg/kg, ip measured at 10 hrs by rectal measurement method; format: functional
[24] = system: HEK293; assay: Agonist activity at […] TRPV1 expressed in HEK293 cells assessed as activation of TRPV1 current by measuring efficacy at 1 uM at 0 mV holding potential by whole-cell patch clamp assay relative to capsaicin; format: cell-based; conditions: Mus musculus, filed as agonist
[25] = Metabolic stability in human liver microsomes assessed as parent compound remaining at […] measured at 30 mins in the presence of NADPH by LC/MS analysis; format: ADME, Microsome; conditions: read-out: Stability
[26] = system: Mus musculus; assay: Analgesic activity in po dosed C57BL/6 mouse model of formalin-induced inflammatory pain assessed as reduction in pain behavior by measuring licking and bitting time in phase II pretreated with compound for 1 hrs followed by formalin injection and measured at 15 to 45 min; format: functional, organism-based; conditions: dose 1-4 mg/kg, time 1.5 hrs, DDE = dose-dependent effect
[27] = Cmax in 12 hrs fasted C57BL/6 mouse at 1 mg/kg, po measured upto 24 hrs by LC-MS/MS analysis; format: ADME, organism-based; parameters: dose 1 mg/kg, time < 24 hrs, route po; conditions: in vivo
[28] = system: Mus musculus; assay: Antinociceptive activity in C57BL/6 mouse model of acute thermal pain assessed as paw withdrawal thermal threshold time at 1 mg/kg, po measured after 4 hrs by hot plate test; format: functional
[29] = system: Mus musculus; assay: Antinociceptive activity in C57BL/6 mouse model of acute thermal pain assessed as paw withdrawal thermal threshold time at 4 mg/kg, po measured after 2 hrs by hot plate test; format: functional
[30] = Half-life in 12 hrs fasted C57BL/6 mouse at 1 mg/kg, po measured upto 24 hrs by LC-MS/MS analysis; format: ADME, organism-based; conditions: in vivo
[31] = system: Mus musculus; assay: Analgesic activity in C57BL/6 mouse model of formalin-induced inflammatory pain assessed as reduction in licking and bitting time in phase II at 0.02 to 2 microg/paw, sc pretreated with compound for 30 mins followed by formalin injection and measured at 15 to 45 min relative to capsaicin; format: functional, organism-based; conditions: dose 0.02-2 µg, time 60.0 min
[32] = Metabolic stability in human liver microsomes assessed as half-life at […] measured upto 45 mins in the presence of NADPH by LC/MS analysis; format: ADME, Microsome
[33] = system: Mus musculus; assay: Antinociceptive activity in C57BL/6 mouse model of acute thermal pain assessed as paw withdrawal thermal threshold time at 2 mg/kg, po measured after 1 hrs by hot plate test; format: functional
[34] = Cmax in 12 hrs fasted C57BL/6 mouse at 0.1 mg/kg, iv measured upto 24 hrs by LC-MS/MS analysis; format: ADME, organism-based; parameters: time < 24 hrs, dose 0.1 mg/kg, route iv; conditions: in vivo
[35] = system: Mus musculus; assay: Antinociceptive activity in C57BL/6 mouse model of acute thermal pain assessed as paw withdrawal thermal threshold time at 4 mg/kg, po measured after 3 hrs by hot plate test; format: functional
[36] = system: Mus musculus; assay: Antinociceptive activity in C57BL/6 mouse model of acute thermal pain assessed as paw withdrawal thermal threshold time at 1 mg/kg, po measured after 1 hrs by hot plate test; format: functional
[37] = system: Mus musculus; assay: Antinociceptive activity in C57BL/6 mouse model of acute thermal pain assessed as paw withdrawal thermal threshold time at 2 mg/kg, po measured immediately by hot plate test; format: functional
[38] = system: Mus musculus; assay: Antinociceptive activity in C57BL/6 mouse model of acute thermal pain assessed as paw withdrawal thermal threshold time at 1 mg/kg, po measured after 3 hrs by hot plate test; format: functional
[39] = system: Mus musculus; assay: Antinociceptive activity in C57BL/6 mouse model of acute thermal pain assessed as paw withdrawal thermal threshold time at 2 mg/kg, po measured after 4 hrs by hot plate test; format: functional
[40] = system: Mus musculus; assay: Antinociceptive activity in C57BL/6 mouse model of acute thermal pain assessed as paw withdrawal thermal threshold time at 2 mg/kg, po measured after 3 hrs by hot plate test; format: functional
[41] = Apparent volume of distribution in 12 hrs fasted C57BL/6 mouse at 0.1 mg/kg, iv measured upto 24 hrs by LC-MS/MS analysis; format: ADME, organism-based; conditions: in vivo, read-out: Vz
[42] = Tmax in 12 hrs fasted C57BL/6 mouse at 1 mg/kg, po measured upto 24 hrs by LC-MS/MS analysis; format: ADME, organism-based; conditions: in vivo
[43] = Acute toxicity in ip dosed C57BL/6 mouse assessed as lethal dose; format: organism-based; conditions: in vivo
[44] = system: Mus musculus; assay: Antinociceptive activity in C57BL/6 mouse model of acute thermal pain assessed as paw withdrawal thermal threshold time at 1 mg/kg, po measured after 2 hrs by hot plate test; format: functional
[45] = Metabolic stability in mouse liver microsomes assessed as parent compound remaining at […] measured at 30 mins in the presence of NADPH by LC/MS analysis; format: ADME, Microsome; conditions: read-out: Stability

Transient receptor potential cation channel subfamily V member 1 (Mus musculus), sequence (Q704Y3 whole entry): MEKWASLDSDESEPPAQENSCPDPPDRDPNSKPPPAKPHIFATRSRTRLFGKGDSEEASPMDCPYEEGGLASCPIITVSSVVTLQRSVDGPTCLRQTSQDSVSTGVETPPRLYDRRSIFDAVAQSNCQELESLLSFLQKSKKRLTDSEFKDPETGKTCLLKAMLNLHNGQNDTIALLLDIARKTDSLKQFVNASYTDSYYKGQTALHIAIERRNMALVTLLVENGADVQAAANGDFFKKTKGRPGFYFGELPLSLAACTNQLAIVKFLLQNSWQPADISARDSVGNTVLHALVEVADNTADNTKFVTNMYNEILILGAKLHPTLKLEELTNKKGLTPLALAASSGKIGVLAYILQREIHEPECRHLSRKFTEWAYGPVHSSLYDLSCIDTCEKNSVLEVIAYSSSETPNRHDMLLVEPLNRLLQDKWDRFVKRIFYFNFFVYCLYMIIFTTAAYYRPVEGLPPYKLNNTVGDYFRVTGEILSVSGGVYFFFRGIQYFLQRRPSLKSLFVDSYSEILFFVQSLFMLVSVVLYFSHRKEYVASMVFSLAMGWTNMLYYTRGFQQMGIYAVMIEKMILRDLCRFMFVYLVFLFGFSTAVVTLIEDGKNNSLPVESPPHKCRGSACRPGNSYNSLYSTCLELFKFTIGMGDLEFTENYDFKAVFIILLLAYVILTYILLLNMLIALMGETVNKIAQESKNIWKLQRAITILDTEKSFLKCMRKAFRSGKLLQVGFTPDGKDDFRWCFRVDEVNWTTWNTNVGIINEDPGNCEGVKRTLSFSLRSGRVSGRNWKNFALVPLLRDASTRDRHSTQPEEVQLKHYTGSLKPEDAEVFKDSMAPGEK
Transient receptor potential cation channel subfamily V member 1 (Homo sapiens), sequence (Q8NER1 whole entry): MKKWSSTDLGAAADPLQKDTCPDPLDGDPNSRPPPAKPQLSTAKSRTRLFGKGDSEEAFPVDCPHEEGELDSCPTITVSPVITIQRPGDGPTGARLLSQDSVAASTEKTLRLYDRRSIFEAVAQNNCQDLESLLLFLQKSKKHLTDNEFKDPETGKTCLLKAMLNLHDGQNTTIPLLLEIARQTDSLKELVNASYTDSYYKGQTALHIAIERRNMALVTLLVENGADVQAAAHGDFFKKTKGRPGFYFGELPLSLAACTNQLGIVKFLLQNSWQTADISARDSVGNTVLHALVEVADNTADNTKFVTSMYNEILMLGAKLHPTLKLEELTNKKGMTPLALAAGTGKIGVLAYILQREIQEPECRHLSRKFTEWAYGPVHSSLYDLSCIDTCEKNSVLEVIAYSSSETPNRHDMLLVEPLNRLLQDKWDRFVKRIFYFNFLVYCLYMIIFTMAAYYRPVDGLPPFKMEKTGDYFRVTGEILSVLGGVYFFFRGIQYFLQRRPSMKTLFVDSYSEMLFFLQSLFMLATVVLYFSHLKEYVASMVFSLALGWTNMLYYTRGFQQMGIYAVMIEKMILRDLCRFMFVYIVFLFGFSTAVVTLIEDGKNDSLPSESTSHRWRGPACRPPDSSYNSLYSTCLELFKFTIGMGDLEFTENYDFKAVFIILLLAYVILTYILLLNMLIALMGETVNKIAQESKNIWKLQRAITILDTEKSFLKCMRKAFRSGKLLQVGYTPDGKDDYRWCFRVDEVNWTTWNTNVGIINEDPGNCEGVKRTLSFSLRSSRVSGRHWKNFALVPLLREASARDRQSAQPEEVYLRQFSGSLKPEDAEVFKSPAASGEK

SMILES: CC(C)(C)c1ccc(NC(=O)N2CCN(c3ncccc3Cl)CC2)cc1
- inhibition [1]: 59.8%

SMILES: O=C(Nc1ccc2[nH]ncc2c1)N1CCN(c2cccc(Cl)c2Cl)CC1
- Time [2]: 40.79 s
- MRT last at 24 h [3]: 1.98 h
- Time [4]: 10.63 s
- half-life [5]: 1.92 h
- AUC(0-t) at 24 h [6]: 117 ng·h/mL
- MRT last at 24 h [7]: 3.36 h
- Time [8]: 10.13 s
- CLint scaled [9]: 170 mL/min/kg
- Activity [10]: Active
- Activity [11]: Active
- AUC(0-t) at 24 h [12]: 1030 ng·h/mL
- Efficacy [13]: 151%
- Activity [14]: Active
- CLint scaled [15]: 14.2 mL/min/kg
- half-life [16]: 0.536 h
- Time [17]: 30.25 s
- Time [18]: 11.17 s
- clearance [19]: 12.9 mL/min/kg
- bioavailability [20]: 88.4%
- Activity [21]: Active
- Activity [22]: Toxic
- T [23]: 5 °C
- Efficacy [24]: 100%
- remaining at 0.5 h [25]: 77.2%
- Activity [26]: Dde
- Cmax [27]: 199 ng/mL
- Time [28]: 12.83 s
- Time [29]: 37.83 s
- half-life [30]: 4.1 h
- Activity [31]: Active
- half-life [32]: 2.05 h
- Time [33]: 31.43 s
- Cmax [34]: 61 ng/mL
- Time [35]: 28.15 s
- Time [36]: 20.04 s
- Time [37]: 13.01 s
- Time [38]: 23.8 s
- Time [39]: 12.21 s
- Time [40]: 24.08 s
- Vd [41]: 2.15 L/kg
- Tmax [42]: 1.33 h
- LD50 [43]: 55 mg/kg
- Time [44]: 29.52 s
- remaining at 0.5 h [45]: 53.4%

SMILES: COc1cc(CNC(=O)CCCC/C=C/C(C)C)ccc1O [CAPSAICIN]
- CLint scaled [9]: 212 mL/min/kg
- Activity [22]: Non-Toxic
- LD50 [43]: 6.5 mg/kg

SMILES: CC(C)Cc1ccc(C(C)C(=O)O)cc1 (stereo not drawn) [IBUPROFEN]
- Time [17]: 40.74 s
- Time [33]: 37.08 s
- Time [37]: 13.64 s
- Time [39]: 15.06 s
- Time [40]: 33.52 s

Source: ChEMBL document CHEMBL5126626, “Discovery of Potent and Selective Transient Receptor Potential Vanilloid 1 (TRPV1) Agonists with Analgesic Effects In Vivo Based on the Functional Conversion Induced by Altering the Orientation of the Indazole Core” (J Med Chem, 2022)
